This is an account of results in ChEMBL document CHEMBL1158651, “Centaurepensin: A Cytotoxic Constituent of Centaurea solstitialis and C. repens (Asteraceae)” (1979).

This test is described as follows: Cytotoxicity against human 9KB cells. Type of test: functional. The settings on record: read-out: ED50 (the source's name).

Each structure is given as a SMILES string. Values after ≈ are worked out from the molar mass of the structure shown.

Regarding `C=C1C(=O)O[C@H]2[C@H]1[C@@H](OC(=O)[C@](C)(O)CCl)CC(=C)[C@@H]1C[C@H](O)[C@](O)(CCl)[C@H]21` [CENTAUREPENSIN], the EC50 came out at 1.7 µg/mL (≈ 3.91 µM).
